Reference: ChEMBL document CHEMBL1128656, “5,6,7,8-Tetrahydroquinolones as antagonists at the glycine site of the NMDA receptor” (Bioorg Med Chem Lett, 1995)
Calls of active or inactive are those of the source. No cut-off for these calls is given here.

Legend:
[1] = species on record: Mus musculus; assay: Effective dose required to protect against audiogenic seizure in DBA/2 mice; format: functional
[2] = test system: Mus musculus; assay: Effective dose required to protect against audiogenic seizure in DBA/2 mice at 10 mg/kg; number protected / number tested is 1/8; format: functional, organism-based; set-up: dose 10 mg/kg
[3] = molecular target: Glutamate receptor ionotropic, NMDA 1 (Rattus norvegicus) (UniProt P35439); assay: Ability of compound to antagonize NMDA induced responses in rat cortical slice; format: functional
[4] = molecular target: Glutamate receptor ionotropic, NMDA 1 (Rattus norvegicus, UniProt P35439); assay: Compound was evaluated for its ability to displace [3H]-L-689,560 from rat cortical membrane
[5] = test system: Mus musculus; assay: Effective dose required to protect against audiogenic seizure in DBA/2 mice at 20 mg/kg; number protected / number tested is 8/8; format: functional, organism-based; set-up: dose 20 mg/kg
[6] = test system: Mus musculus; assay: Effective dose required to protect against audiogenic seizure in DBA/2 mice at 10 mg/kg; number protected / number tested is 4/8; format: functional, organism-based; set-up: dose 10 mg/kg

Structure (SMILES): O=c1[nH]c2cc(Cl)ccc2c(O)c1-c1ccccc1
- ED50 [1]: 4.5 mg/kg

Structure (SMILES): CC1CCc2c(nc(O)c(-c3cccc(Oc4ccccc4)c3)c2O)C1 (stereo not drawn)
- ED50 [2]: inactive
- Kb [3]: 0.35 µM

Structure (SMILES): CC1CCc2c([nH]c(=O)c(-c3ccccc3)c2O)C1 (stereo not drawn)
- IC50 [4]: 3.5 µM

Structure (SMILES): CC1CCc2c(nc(O)c(-c3ccccc3)c2O)C1 (stereo not drawn)
- ED50 [5]: Active
- ED50 [2]: inactive
- Kb [3]: 3.7 µM

Structure (SMILES): O=c1[nH]c2cc(Cl)ccc2c(O)c1-c1cccc(Oc2ccccc2)c1
- ED50 [1]: 0.88 mg/kg

Structure (SMILES): CCCc1nc(O)c(-c2ccccc2)c(O)c1C
- IC50 [4]: ~100 µM

Structure (SMILES): CC1CCc2c([nH]c(=O)c(-c3cccc(Oc4ccccc4)c3)c2O)C1 (stereo not drawn)
- IC50 [4]: 0.057 µM

Structure (SMILES): Cc1ccc2c(O)c(-c3cccc(Oc4ccccc4)c3)c(O)nc2c1
- ED50 [6]: Weak activity

Structure (SMILES): Cc1[nH]c(=O)c(-c2ccccc2)c(O)c1C
- IC50 [4]: > 100 µM

Structure (SMILES): Cc1ccc2c(O)c(-c3cccc(Oc4ccccc4)c3)c(=O)[nH]c2c1
- IC50 [4]: 0.02 µM
